From article PMC12426935, “On-Cell Saturation Transfer Difference NMR Spectroscopy on Ion Channels: Characterizing Negative Allosteric Modulator Binding Interactions of P2X7” (Journal of the American Chemical Society, 2025) come the findings set out here.

Experiment [1] concerns the target T1, F88A hP2X7 (Homo sapiens, UniProt Q99572, F88A).
T1 sequence (Q99572 1-595 F88A): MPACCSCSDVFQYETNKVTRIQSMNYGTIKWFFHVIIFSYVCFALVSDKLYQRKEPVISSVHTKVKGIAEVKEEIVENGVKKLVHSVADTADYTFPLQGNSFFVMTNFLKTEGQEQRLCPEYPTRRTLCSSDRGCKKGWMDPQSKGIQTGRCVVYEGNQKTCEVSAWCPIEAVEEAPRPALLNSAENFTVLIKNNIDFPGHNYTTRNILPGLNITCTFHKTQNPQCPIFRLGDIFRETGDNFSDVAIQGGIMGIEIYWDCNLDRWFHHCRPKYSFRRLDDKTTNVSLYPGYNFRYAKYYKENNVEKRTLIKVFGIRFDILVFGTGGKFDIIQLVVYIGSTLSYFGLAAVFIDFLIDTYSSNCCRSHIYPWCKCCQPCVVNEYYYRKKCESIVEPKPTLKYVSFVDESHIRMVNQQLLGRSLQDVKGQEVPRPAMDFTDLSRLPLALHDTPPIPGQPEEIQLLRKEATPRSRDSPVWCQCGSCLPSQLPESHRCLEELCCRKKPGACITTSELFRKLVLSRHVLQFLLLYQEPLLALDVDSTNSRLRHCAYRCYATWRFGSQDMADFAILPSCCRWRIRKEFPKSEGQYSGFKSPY
Description: fura-2 intracellular calcium assay on HEK-293 stable cell line expressing NAM-site mutant F88A hP2X7. Format: cell-based. Conditions: for pIC50: mean in brackets, read-out: mean IC50. As to the method:
(§1) Transfection was performed using lipofectamine 2000 (Fisher Scientific), and cells were subjected to Geneticin (800 μg/mL) selection for 2–3 weeks. This was followed by single cell cloning by limiting dilution in 96-well plates. Individual clones were selected for further study based on ATP-induced TO-PRO-3 uptake on a BD Cytoflex flow cytometer. Cell lines were maintained in DMEM:F12 media supplemented with 10% fetal bovine serum (PanBiotech), penicillin and streptomycin (Fisher Scientific) and kept in a humidified incubator with 5% CO2. Stable P2X7-expressing cells were kept under Geneticin selection at a concentration of 400 μg/mL. Passaging was performed twice weekly using 0.25% Trypsin-EDTA (Fisher Scientific).
(§2) P2X7 responses were measured by monitoring intracellular calcium responses using fura-2AM loaded cells. Cells were plated at 2–2.5 × 10^4 cells/well the day before experiments in 96-well plates (NUNC) coated with 50 μg/mL poly-D-lysine (Merck Millipore). A loading buffer containing 2 μM fura-2AM (HelloBio) and 250 μM sulfinpyrazone (Merck Millipore) in a low divalent buffer (145 mM NaCl, 5 mM KCl, 0.2 mM CaCl2, 10 mM HEPES, 13 mM glucose, pH 7.3) was added to cells for 45 min at 37 °C. After loading, the buffer was removed and replaced with calcium-containing extracellular solution (145 mM NaCl, 5 mM KCl, 2 mM CaCl2, 10 mM HEPES, 13 mM glucose, pH 7.3). Responses were measured using a Flexstation 3 plate reader (Molecular Devices) with dual excitation wavelengths of 340 and 380 nm and single emission wavelength of 510 nm. The sample interval was 3.5 s, and each well was recorded for 180 s. Fura-2 ratios were calculated in Softmax Pro v5.4; zero baseline was applied, and responses were measured as normalized area under the curve (AUC). Dose inhibition curves were plotted using GraphPad Prism v6 nonlinear regression (three parameter fit) and log IC50 values reported.

The target in experiment [2] is T2, rat P2X7 (rP2X7) (Rattus norvegicus, UniProt Q64663).
T2 construct: expressed in transfected cells
T2 sequence (Q64663 1-595): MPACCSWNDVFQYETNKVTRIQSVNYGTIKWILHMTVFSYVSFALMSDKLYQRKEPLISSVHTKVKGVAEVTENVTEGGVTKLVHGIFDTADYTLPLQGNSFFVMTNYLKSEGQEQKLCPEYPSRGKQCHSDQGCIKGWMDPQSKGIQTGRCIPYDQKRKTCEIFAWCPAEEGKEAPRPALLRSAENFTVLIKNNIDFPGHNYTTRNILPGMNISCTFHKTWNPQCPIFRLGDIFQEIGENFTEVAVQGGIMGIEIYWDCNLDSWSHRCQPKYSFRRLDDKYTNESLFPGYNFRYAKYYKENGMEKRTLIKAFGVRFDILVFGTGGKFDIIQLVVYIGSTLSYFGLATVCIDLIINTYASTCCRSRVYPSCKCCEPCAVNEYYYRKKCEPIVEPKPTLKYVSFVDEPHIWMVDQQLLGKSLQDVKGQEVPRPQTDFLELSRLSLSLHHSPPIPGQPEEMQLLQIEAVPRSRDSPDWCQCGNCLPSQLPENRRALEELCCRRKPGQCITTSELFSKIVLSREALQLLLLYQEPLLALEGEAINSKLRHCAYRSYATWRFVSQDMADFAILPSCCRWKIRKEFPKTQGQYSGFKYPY
Description: fura-2 intracellular calcium assay on HEK-293 stable cell line expressing rat P2X7. The class given is cell-based. To be noted: Rat P2X7 (Table 1), n = 3. As for the experimental part:
as §1, with “Genetically edited HEK-293 cells lacking P2Y2 receptors were used to generate stable cell lines expressing human P2X7 (hP2X7), mouse P2X7 (mP2X7), rat P2X7 (rP2X7), or mutants of the hP2X7 NAM site (F88A, M105A, and F103A). Transfection” for “Transfection”
as §2

pIC50: −log10 of the molar value. Like-named read-outs stand apart in the source and are kept apart here.

Turning to `O=C(NCC1(N2CCN(c3ccccc3)CC2)CCOCC1)c1cccnc1Sc1ccccc1` [JNJ-47965567], the IC50 was 121 nM in experiment [1] (F88A hP2X7, agonist ATP, log IC50 ± standard error, n = 3, read-out: Log IC50 (converted)) and 17.4 nM in experiment [2] (log IC50 ± standard error, read-out: Log IC50 (converted)). Further, the pIC50 is 6.90 in experiment [1] (F88A hP2X7, agonist ATP, n = 3); 7.27 in experiment [1] (F88A hP2X7, agonist BzATP, n = 3); 7.75 in experiment [2] (mean in brackets, read-out: mean IC50). Moreover, the “increase in IC50 at F88A relative to hP2X7” value in experiment [1] (F88A hP2X7 vs hP2X7) was found to be 10 fold.
